Results reported in ChEMBL document CHEMBL2440076, “New triarylpyrazoles as broad-spectrum anticancer agents: design, synthesis, and biological evaluation” (Eur J Med Chem, 2013).

Tests used:
Format in all cases: functional
OVCAR-8 [1] = experiment: Growth inhibition of human OVCAR8 cells assessed as cell growth at 5X10'-6 M after 48 hrs by sulforhodamine B assay; details: OVCAR-8, 48 h, read-out: Activity
OVCAR-5 [2] = experiment: Growth inhibition of human OVCAR5 cells assessed as cell growth at 5X10'-5 M after 48 hrs by sulforhodamine B assay; details: OVCAR-5, 48 h, read-out: Activity
SF-268 = experiment: Growth inhibition of human SF268 cells assessed as cell growth at 5X10'-6 M after 48 hrs by sulforhodamine B assay; details: SF-268, 48 h, read-out: Activity
RXF 393 = experiment: Growth inhibition of human RXF393 cells assessed as cell growth at 5X10'-6 M after 48 hrs by sulforhodamine B assay; details: RXF 393, 48 h, read-out: Activity
CCRF-CEM = experiment: Growth inhibition of human CCRF-CEM cells assessed as cell growth at 5X10'-9 M after 48 hrs by sulforhodamine B assay; details: read-out: Activity
HT-29 = experiment: Growth inhibition of human HT-29 cells assessed as cell growth at 5X10'-9 M after 48 hrs by sulforhodamine B assay; details: HT-29, 48 h, read-out: Activity
K562 [3] = experiment: Growth inhibition of human K562 cells assessed as cell growth at 5X10'-7 M after 48 hrs by sulforhodamine B assay; details: K562, 48 h, read-out: Activity
MCF7 = experiment: Growth inhibition of human MCF7 cells assessed as cell growth at 5X10'-7 M after 48 hrs by sulforhodamine B assay; details: MCF7, 48 h, read-out: Activity
MOLT-4 [4] = experiment: Growth inhibition of human MOLT4 cells assessed as cell growth at 5X10'-6 M after 48 hrs by sulforhodamine B assay; details: MOLT-4, 48 h, read-out: Activity
MDA-MB-468 = experiment: Growth inhibition of human MDA-MB-468 cells assessed as cell growth at 5X10'-6 M after 48 hrs by sulforhodamine B assay; details: MDA-MB-468, 48 h, read-out: Activity
[5] = Growth inhibition of human HCC2998 cells assessed as cell growth at 5X10'-9 M after 48 hrs by sulforhodamine B assay; details: HCC 2998, 48 h, read-out: Activity
OVCAR-8 [6] = experiment: Growth inhibition of human OVCAR8 cells assessed as cell growth at 5X10'-9 M after 48 hrs by sulforhodamine B assay; details: OVCAR-8, 48 h, read-out: Activity
ACHN = experiment: Growth inhibition of human ACHN cells assessed as cell growth at 5X10'-6 M after 48 hrs by sulforhodamine B assay; details: read-out: Activity
UO-31 = experiment: Growth inhibition of human UO31 cells assessed as cell growth at 5X10'-5 M after 48 hrs by sulforhodamine B assay; details: UO-31, 48 h, read-out: Activity
NCI-H23 [7] = experiment: Growth inhibition of human NCI-H23 cells assessed as cell growth at 5X10'-5 M after 48 hrs by sulforhodamine B assay; details: NCI-H23, 48 h, read-out: Activity
MDA-MB-231 = experiment: Growth inhibition of human MDA-MB-231 cells assessed as cell growth at 5X10'-8 M after 48 hrs by sulforhodamine B assay; details: MDA-MB-231, 48 h, read-out: Activity
MOLT-4 [8] = experiment: Growth inhibition of human MOLT4 cells assessed as cell growth at 5X10'-9 M after 48 hrs by sulforhodamine B assay; details: MOLT-4, 48 h, read-out: Activity
K562 [9] = experiment: Growth inhibition of human K562 cells assessed as cell growth at 5X10'-5 M after 48 hrs by sulforhodamine B assay; details: K562, 48 h, read-out: Activity
LOX IMVI [10] = experiment: Growth inhibition of human LOXIMVI cells assessed as cell growth at 5X10'-7 M after 48 hrs by sulforhodamine B assay; details: read-out: Activity
NCI-H23 [11] = experiment: Growth inhibition of human NCI-H23 cells assessed as cell growth at 5X10'-9 M after 48 hrs by sulforhodamine B assay; details: NCI-H23, 48 h, read-out: Activity
CAKI-1 = experiment: Growth inhibition of human CAKI-1 cells assessed as cell growth at 5X10'-6 M after 48 hrs by sulforhodamine B assay; details: CAKI-1, 48 h, read-out: Activity
LOX IMVI [12] = experiment: Growth inhibition of human LOXIMVI cells assessed as cell growth at 5X10'-8 M after 48 hrs by sulforhodamine B assay; details: read-out: Activity
SK-OV-3 = experiment: Growth inhibition of human SKOV3 cells assessed as cell growth at 5X10'-9 M after 48 hrs by sulforhodamine B assay; details: SK-OV-3, 48 h, read-out: Activity
UACC-257 [13] = experiment: Growth inhibition of human UACC257 cells assessed as cell growth at 5X10'-6 M after 48 hrs by sulforhodamine B assay; details: UACC-257, 48 h, read-out: Activity
SK-MEL-28 = experiment: Growth inhibition of human SK-MEL-28 cells assessed as cell growth at 5X10'-7 M after 48 hrs by sulforhodamine B assay; details: SK-MEL-28, 48 h, read-out: Activity
RPMI-8226 = experiment: Growth inhibition of human RPMI8226 cells assessed as cell growth at 5X10'-9 M after 48 hrs by sulforhodamine B assay; details: RPMI-8226, 48 h, read-out: Activity
SK-MEL-2 [14] = experiment: Growth inhibition of human SK-MEL-2 cells assessed as cell growth at 5X10'-5 M after 48 hrs by sulforhodamine B assay; details: SK-MEL-2, 48 h, read-out: Activity
SK-MEL-2 [15] = experiment: Growth inhibition of human SK-MEL-2 cells assessed as cell growth at 5X10'-6 M after 48 hrs by sulforhodamine B assay; details: SK-MEL-2, 48 h, read-out: Activity
SNB-75 = experiment: Growth inhibition of human SNB75 cells assessed as cell growth at 5X10'-7 M after 48 hrs by sulforhodamine B assay; details: SNB-75, 48 h, read-out: Activity
OVCAR-5 [16] = experiment: Growth inhibition of human OVCAR5 cells assessed as cell growth at 5X10'-9 M after 48 hrs by sulforhodamine B assay; details: OVCAR-5, 48 h, read-out: Activity
[17] = Growth inhibition of human Hs 578T cells assessed as cell growth at 5X10'-7 M after 48 hrs by sulforhodamine B assay; details: read-out: Activity
UACC-257 [18] = experiment: Growth inhibition of human UACC257 cells assessed as cell growth at 5X10'-9 M after 48 hrs by sulforhodamine B assay; details: UACC-257, 48 h, read-out: Activity
SF-539 = experiment: Growth inhibition of human SF539 cells assessed as cell growth at 5X10'-9 M after 48 hrs by sulforhodamine B assay; details: SF-539, 48 h, read-out: Activity
IGROV-1 = experiment: Growth inhibition of human IGROV1 cells assessed as cell growth at 5X10'-6 M after 48 hrs by sulforhodamine B assay; details: IGROV-1, 48 h, read-out: Activity
SNB-19 = experiment: Growth inhibition of human SNB19 cells assessed as cell growth at 5X10'-9 M after 48 hrs by sulforhodamine B assay; details: SNB-19, 48 h, read-out: Activity
OVCAR-5 [19] = experiment: Growth inhibition of human OVCAR5 cells assessed as cell growth at 5X10'-6 M after 48 hrs by sulforhodamine B assay; details: OVCAR-5, 48 h, read-out: Activity
NCI-H322M = experiment: Growth inhibition of human NCI-H322M cells assessed as cell growth at 5X10'-7 M after 48 hrs by sulforhodamine B assay; details: read-out: Activity

Row | SMILES | growth at 5 µM (OVCAR-8 [1]) | growth at 50 µM (OVCAR-5 [2]) | growth at 5 µM (SF-268) | growth at 5 µM (RXF 393) | growth at 0.005 µM (CCRF-CEM) | growth at 0.005 µM (HT-29) | growth at 0.5 µM (K562 [3]) | growth at 0.5 µM (MCF7) | growth at 5 µM (MOLT-4 [4]) | growth at 5 µM (MDA-MB-468) | growth at 0.005 µM [5] | growth at 0.005 µM (OVCAR-8 [6]) | growth at 5 µM (ACHN) | growth at 50 µM (UO-31) | growth at 50 µM (NCI-H23 [7]) | growth at 0.05 µM (MDA-MB-231) | growth at 0.005 µM (MOLT-4 [8]) | growth at 50 µM (K562 [9]) | growth at 0.5 µM (LOX IMVI [10]) | growth at 0.005 µM (NCI-H23 [11]) | other results
1 | COc1cc(-c2nn(-c3cccc(NC(=O)Nc4ccc(Cl)c(Cl)c4)c3)cc2-c2ccncc2)ccc1Cl | -12% | 15% | 8% | -34% | 101% | 102% | 65% | 68% | -4% | -29% | 101% | 99% | 3% | -11% | -9% | 89% | 103% | 3% | 82% | 97% | growth at 5 µM (CAKI-1): -13%; growth at 0.05 µM (LOX IMVI [12]): 101%; growth at 0.005 µM (SK-OV-3): 104%; growth at 5 µM (UACC-257 [13]): -22%; growth at 0.5 µM (SK-MEL-28): 91%; growth at 0.005 µM (RPMI-8226): 96%; growth at 50 µM (SK-MEL-2 [14]): -59%; growth at 5 µM (SK-MEL-2 [15]): -52%; growth at 0.5 µM (SNB-75): 74%; growth at 0.005 µM (OVCAR-5 [16]): 93%; growth at 0.5 µM [17]: 83%; growth at 0.005 µM (UACC-257 [18]): 98%; growth at 0.005 µM (SF-539): 94%; growth at 5 µM (IGROV-1): -17%; growth at 0.005 µM (SNB-19): 92%; growth at 5 µM (OVCAR-5 [19]): 27%; growth at 0.5 µM (NCI-H322M): 89%
2 | COc1cc(-c2nn(-c3cccc(NC(=O)c4cccc(C(F)(F)F)c4)c3)cc2-c2ccncc2)ccc1Cl | 23% | 31% | 28% | -17% | 100% | 96% | 83% | 81% | 23% | -4% | 92% | 97% | 27% | 19% | -3% | 97% | 99% | 7% | 84% | 91% | growth at 5 µM (CAKI-1): 24%; growth at 0.05 µM (LOX IMVI [12]): 91%; growth at 0.005 µM (SK-OV-3): 96%; growth at 5 µM (UACC-257 [13]): 56%; growth at 0.5 µM (SK-MEL-28): 87%; growth at 0.005 µM (RPMI-8226): 98%; growth at 50 µM (SK-MEL-2 [14]): 6%; growth at 5 µM (SK-MEL-2 [15]): 8%; growth at 0.5 µM (SNB-75): 79%; growth at 0.005 µM (OVCAR-5 [16]): 95%; growth at 0.5 µM [17]: 74%; growth at 0.005 µM (UACC-257 [18]): 105%; growth at 0.005 µM (SF-539): 95%; growth at 5 µM (IGROV-1): 22%; growth at 0.005 µM (SNB-19): 100%; growth at 5 µM (OVCAR-5 [19]): 46%; growth at 0.5 µM (NCI-H322M): 87%
